Data: the supplement of paper PMC10307832

Key:
Test in all cases: relative viability (nuclei count vs DMSO), 5 days (fraction); higher = more cells survive
COR-L23 = system: COR-L23
Summary of the method: (§1)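 Relative viability was taken as the ratio of nuclei in treated wells to nuclei in vehicle wells. Lung cancer cell lines in 1536-well plates received compounds by pin tool one day after seeding, either one drug alone or a fixed anchor-drug dose plus five library-drug doses (not always all listed) in √10 steps. Nuclei were counted on 4× images after 5 days of treatment, and values are medians of duplicate plates.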

EPLC-272H = system: EPLC-272H
Summary of the method: as §1

NCI-H647 = system: NCI-H647
Summary of the method: as §1

NCI-H2347 = system: NCI-H2347
Summary of the method: as §1

NCI-H441 = system: NCI-H441
Summary of the method: as §1

NCI-H3122 = system: NCI-H3122
Summary of the method: as §1

NCI-H2023 = system: NCI-H2023
Summary of the method: as §1

NCI-H1734 = system: NCI-H1734
Summary of the method: as §1

H3255 = system: H3255
Summary of the method: as §1

UMC-11 = system: UMC-11
Summary of the method: as §1

HCC-15 = system: HCC-15
Summary of the method: as §1

CCN(CC)CCCCNc1ncc2cc(-c3cc(OC)cc(OC)c3)c(NC(=O)NC(C)(C)C)nc2n1 + CC(=O)Nc1cccc(-n2c(=O)n(C3CC3)c(=O)c3c(Nc4ccc(I)cc4F)n(C)c(=O)c(C)c32)c1 [Trametinib] (partner 0.02 µM)
relative viability (COR-L23; first compound 0.01 µM): 0.579
relative viability (COR-L23; first compound 0.03162 µM): 0.593
relative viability (COR-L23; first compound 0.1 µM): 0.667
relative viability (COR-L23; first compound 0.3162 µM): 0.692
relative viability (COR-L23; first compound 1 µM): 0.61
relative viability (EPLC-272H; first compound 0.01 µM): 0.263
relative viability (EPLC-272H; first compound 0.1 µM): 0.277
relative viability (EPLC-272H; first compound 0.3162 µM): 0.281
relative viability (EPLC-272H; first compound 1 µM): 0.215
relative viability (NCI-H647; first compound 0.01 µM): 0.382
relative viability (NCI-H647; first compound 0.03162 µM): 0.517
relative viability (NCI-H647; first compound 0.1 µM): 0.512
relative viability (NCI-H647; first compound 0.3162 µM): 0.456
relative viability (NCI-H647; first compound 1 µM): 0.267
relative viability (NCI-H2347; first compound 0.01 µM): 0.253
relative viability (NCI-H2347; first compound 0.03162 µM): 0.261
relative viability (NCI-H2347; first compound 0.1 µM): 0.293
relative viability (NCI-H2347; first compound 0.3162 µM): 0.367
relative viability (NCI-H2347; first compound 1 µM): 0.321
relative viability (NCI-H441; first compound 0.01 µM): 0.545
relative viability (NCI-H441; first compound 0.03162 µM): 0.506
relative viability (NCI-H441; first compound 0.1 µM): 0.489
relative viability (NCI-H441; first compound 0.3162 µM): 0.529
relative viability (NCI-H441; first compound 1 µM): 0.408
relative viability (NCI-H3122; first compound 0.01 µM): 0.246
relative viability (NCI-H3122; first compound 0.03162 µM): 0.229
relative viability (NCI-H3122; first compound 0.1 µM): 0.226
relative viability (NCI-H3122; first compound 0.3162 µM): 0.239
relative viability (NCI-H3122; first compound 1 µM): 0.247
relative viability (NCI-H2023; first compound 0.01 µM): 0.662
relative viability (NCI-H2023; first compound 0.03162 µM): 0.551
relative viability (NCI-H2023; first compound 0.1 µM): 0.624
relative viability (NCI-H2023; first compound 0.3162 µM): 0.629
relative viability (NCI-H2023; first compound 1 µM): 0.447
relative viability (NCI-H1734; first compound 0.01 µM): 0.665
relative viability (NCI-H1734; first compound 0.03162 µM): 0.678
relative viability (NCI-H1734; first compound 0.1 µM): 0.627
relative viability (NCI-H1734; first compound 0.3162 µM): 0.581
relative viability (NCI-H1734; first compound 1 µM): 0.407
relative viability (H3255; first compound 0.01 µM): 0.627
relative viability (H3255; first compound 0.1 µM): 0.596
relative viability (H3255; first compound 0.3162 µM): 0.711
relative viability (H3255; first compound 1 µM): 0.566
relative viability (UMC-11; first compound 0.01 µM): 0.686
relative viability (UMC-11; first compound 0.03162 µM): 0.483
relative viability (UMC-11; first compound 0.1 µM): 0.593
relative viability (UMC-11; first compound 0.3162 µM): 0.764
relative viability (UMC-11; first compound 1 µM): 0.695
relative viability (HCC-15; first compound 0.01 µM): 0.427
relative viability (HCC-15; first compound 0.03162 µM): 0.367
relative viability (HCC-15; first compound 0.1 µM): 0.414
